Results from patent US20080146524A1, “Selective inhibitors of neurotensin degrading enzymes” (Solvay Pharmaceuticals B.V., priority 2006, published 2008).
Residues, ends and D or L forms follow the SMILES beside them.

Columns and labels:
[1] = test system: Corynebacterium rathayii collagenase; conditions: cited from earlier work
[2] = in vivo experiments with phosphodiepril
Text: Thus, even in its pure form, the N-analog is not stable. Due to the rapid hydrolysis of the phosphonamide bond, enzyme inhibition activity of this compound can only be determined with difficulty.

[3] = determination of chemical stability, storage in glass vials, LC-MS; type: physicochemical; conditions: for relative stability: stored in glass vials, LC-MS; for stability on storage (in words): over 10 days (240 hr)
Description: Compound 36 and its phosphinamide analog phosphodiepril (FR 2 654 430, synthesized as disclosed therein) were stored separately in glass vials. At different time intervals samples were taken and analyzed by LC-MS. Samples were dissolved in DMSO (0.1 mg/ml) and diluted by a factor 100 in the first LC eluent (A). At fixed time points an amount of 100 μl was taken from the formulations. These time points were 0, 3, 72, and 240 hours. All samples were measured in the positive mode, with an ESI source on the LC-MS.
Eluents were composed of water (H2O), acetonitril (ACN), methanol (MeOH) and ammonium-acetate (NH4Ac). The eluent is mixed out of two different bottles with two different compositions. • Eluent A consists of H2O/ACN/MeOH 800/100/100+0.77 g/l NH4Ac. • Eluent B consists of H2O/ACN/MeOH 100/800/100+0.77 g/l NH4Ac.
The gradient in the pump was set to:
Columns: Chromsep Guard Column SS 10×2 mm (CP28141) and Inertsil 5 ODS-3 100×3.0 mm (CP22234). Column temperature: 25° C.
Injection: well plate temperature: 25° C. • Injection volume: 20 μl • Splitter (post column): 1:4 • Run time: 9.50 minutes.
Detection MS-MS:ESI (pos/neg) spray 3.0 kV • Fragmentor 70 • Gain 2.0 • Dwell 700 msec • Nebulizer pressure 42 psig • Drying gas temperature 325° C. • Capillary temperature 325° C.
Compound 36 and its phosphinamide analog phosphodiepril (FR 2 654 430, synthesized as disclosed therein) were stored separately in glass vials. At different time intervals samples were taken and analyzed by LC-MS.
When calculating the relative stability it was assumed that the compounds were completely dissolved during formulation. Therefore, the relative stability is 100% at the beginning (0 hour measurement). The following time measurements are recalculated from that measurement.

[4] = molecular target: Thimet oligopeptidase EC 3.4.24.15 (UniProt P24155); test: enzyme inhibition of Thimet oligopeptidase EC 3.4.24.15 (published methods, Dauch 1991a,b); type: biochemical
[5] = molecular target: Neurolysine EC 3.4.24.16 (UniProt P42676); type: biochemical
[6] = molecular target: endopeptidase 24.16 (Rattus norvegicus, UniProt P42676); conditions: cited from earlier work
[7] = molecular target: endopeptidase 24.15 (Rattus norvegicus, UniProt P24155); conditions: at concentrations as high as 5 mM; cited from earlier work
[8] = Time 0 hr (set to 100% at the beginning)
[9] = Time 240 hr, relative to 0 hour

Chain of endopeptidase 24.16 (P42676 38-704): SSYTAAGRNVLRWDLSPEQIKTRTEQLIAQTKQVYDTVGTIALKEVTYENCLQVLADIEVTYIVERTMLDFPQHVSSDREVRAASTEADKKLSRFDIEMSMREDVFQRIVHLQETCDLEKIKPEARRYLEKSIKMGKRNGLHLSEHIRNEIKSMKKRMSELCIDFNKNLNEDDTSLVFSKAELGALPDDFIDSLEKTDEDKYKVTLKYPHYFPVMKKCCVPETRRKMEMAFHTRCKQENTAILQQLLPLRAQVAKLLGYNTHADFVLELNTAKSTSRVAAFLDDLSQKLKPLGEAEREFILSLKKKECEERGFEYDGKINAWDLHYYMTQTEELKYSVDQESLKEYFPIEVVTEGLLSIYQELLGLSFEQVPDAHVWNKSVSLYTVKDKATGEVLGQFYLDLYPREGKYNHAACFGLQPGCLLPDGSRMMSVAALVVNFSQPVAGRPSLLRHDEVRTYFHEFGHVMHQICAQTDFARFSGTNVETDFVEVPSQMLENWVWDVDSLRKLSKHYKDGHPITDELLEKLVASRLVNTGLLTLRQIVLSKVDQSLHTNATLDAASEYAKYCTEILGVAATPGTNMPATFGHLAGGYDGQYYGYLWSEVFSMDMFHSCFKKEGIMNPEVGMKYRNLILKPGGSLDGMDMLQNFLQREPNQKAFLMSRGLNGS
Chain of endopeptidase 24.15 (P24155 whole entry): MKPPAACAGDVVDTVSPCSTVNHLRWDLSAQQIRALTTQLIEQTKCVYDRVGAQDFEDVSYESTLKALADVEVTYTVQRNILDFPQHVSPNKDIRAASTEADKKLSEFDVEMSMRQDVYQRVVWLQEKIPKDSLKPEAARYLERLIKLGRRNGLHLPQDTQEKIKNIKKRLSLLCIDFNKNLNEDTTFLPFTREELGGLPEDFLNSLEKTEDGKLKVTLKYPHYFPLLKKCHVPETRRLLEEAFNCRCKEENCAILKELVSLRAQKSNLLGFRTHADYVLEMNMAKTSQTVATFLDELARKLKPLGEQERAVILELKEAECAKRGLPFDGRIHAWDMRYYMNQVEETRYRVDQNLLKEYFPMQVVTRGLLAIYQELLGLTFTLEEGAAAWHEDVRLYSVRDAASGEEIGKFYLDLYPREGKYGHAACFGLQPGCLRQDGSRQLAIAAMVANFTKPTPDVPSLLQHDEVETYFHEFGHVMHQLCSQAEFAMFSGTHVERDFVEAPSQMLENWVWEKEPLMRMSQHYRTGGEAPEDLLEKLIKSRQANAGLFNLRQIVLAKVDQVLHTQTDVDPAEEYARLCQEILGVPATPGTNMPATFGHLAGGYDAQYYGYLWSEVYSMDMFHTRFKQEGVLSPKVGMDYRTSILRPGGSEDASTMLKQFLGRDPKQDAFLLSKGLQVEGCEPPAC

Row | SMILES | enzyme inhibition EC 3.4.24.15 pIC50 [4] | enzyme inhibition EC 3.4.24.16 pIC50 [5] | other results
1 | CCCC[C@H](NC(=O)[C@@H]1CCCN1C(=O)CCP(=O)(O)CCc1ccccc1)C(=O)O [N-[1-[3-[hydroxyl-(2-phenyl-ethyl)phosphinyl]1-oxopropyl]-L-prolyl]-L-norleucine] | – | – | inhibition of Corynebacterium rathayii collagenase [1]: potent inhibitor
2 | CCCC[C@H](NC(=O)[C@@H]1CCCN1C(=O)CNP(=O)(O)CCc1ccc2ccccc2c1)C(=O)O [phosphodiepril, reference compound] | – | – | outcome of in vivo experiments [2]: negative results; relative stability [3, 8]: 100%; relative stability ([3]; Time 3 hr, relative to 0 hour): 92%; relative stability ([3]; Time 72 hr, relative to 0 hour): 87%; relative stability [3, 9]: 82%; stability on storage (in words) [3]: gradually degraded
3 | CCC(C)C(NC(=O)CCP(=O)(O)CCc1cccc2ccccc12)C(=O)NC(C(=O)O)C(C)C (stereo not drawn) [Compound 28] | 6.3 | 5.8 | –
4 | CCC(C)C(NC(=O)CCP(=O)(O)CCCCc1ccccc1)C(=O)NC(C(=O)O)C(C)C (stereo not drawn) [Compound 8] | 5.8 | 5.4 | –
5 | CCCCC(NC(=O)C(NC(=O)CCP(=O)(O)CCCCc1ccccc1)C(C)C)C(=O)O (stereo not drawn) [Compound 6] | 6.8 | 6.7 | –
6 | CC(C)C(NC(=O)CCP(=O)(O)CCc1cccc2ccccc12)C(=O)NC(Cc1ccccc1)C(=O)O (stereo not drawn) [Compound 27] | 6.2 | 6.1 | –
7 | CCC(NC(=O)C(Cc1ccccc1)NC(=O)CCP(=O)(O)Cc1ccc2ccccc2c1)C(=O)O (stereo not drawn) [Compound 25] | 5.7 | 5.9 | –
8 | CCC(C)C(NC(=O)CCP(=O)(O)CCc1cccc2ccccc12)C(=O)NC(CC(C)C)C(=O)O (stereo not drawn) [Compound 30] | 5.8 | 5.2 | –
9 | CCCCC(NC(=O)C(C)N(C)C(=O)CCP(=O)(O)CCCCc1ccccc1)C(=O)O (stereo not drawn) [Compound 11] | 6.2 | 6.1 | –
10 | CCCCC(NC(=O)C(NC(=O)CCP(=O)(O)CCc1cccc2ccccc12)C(C)C)C(=O)O (stereo not drawn) [Compound 26] | 6.5 | 6.3 | –
11 | CCCC[C@H](NC(=O)[C@@H]1CCCN1C(=O)CCP(=O)(O)CCc1ccc2ccccc2c1)C(=O)O [Compound 36] | 8.9 | >7.5 | relative stability [3, 8]: 100%; relative stability ([3]; Time 3 hr, relative to 0 hour): 101%; relative stability ([3]; Time 72 hr, relative to 0 hour): 103%; relative stability [3, 9]: 100%; stability on storage (in words) [3]: remained stable
12 | CC[C@H](C)[C@H](NC(=O)[C@@H]1CCCN1)C(=O)O [Pro-IIe] (H-Pro-Ile-OH) | – | – | Ki [6]: 90 µM; inhibition of endopeptidase 24.15 [7]: does not inhibit
13 | CCCCC(NC(=O)C(C)N(C)C(=O)CCP(=O)(O)CCc1ccc2ccccc2c1)C(=O)O (stereo not drawn) [Compound 32] | 7.0 | – | –
14 | CC(C)C(NC(=O)CCP(=O)(O)CCCCc1ccccc1)C(=O)NC(Cc1ccccc1)C(=O)O (stereo not drawn) [Compound 7] | 6.2 | 6.1 | –
15 | CCC(C)C(NC(=O)CCP(=O)(O)CCCCc1ccccc1)C(=O)NC(CC(C)C)C(=O)O (stereo not drawn) [Compound 9] | 6.3 | 5.6 | –
16 | CCC(C)C(NC(=O)CCP(=O)(O)CCc1ccc2ccccc2c1)C(=O)NC(CC(C)C)C(=O)O (stereo not drawn) [Compound 29] | 7.0 | 6.6 | –
